Experimental findings from patent US20160075653A1, “NEMATICIDAL N-(PHENYLCYCLOALKYL)CARBOXAMIDES AND N-(PHENYLCYCLOALKYL)THIOCARBOXAMIDES” (BAYER CROPSCIENCE AKTIENGESELLSCHAFT, priority 2013, published 2016) are described below.

This data set can be described thus: Measurement of log P values by HPLC on reversed phase columns (methods [a] pH 2.3, [b] pH 2.7, [c] pH 7.8). It counts as physicochemical. As to conditions: HPLC reversed phase. An outline of the steps: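 Determined per EEC Directive 79/831 Annex V.A8 by reversed-phase HPLC, 10-95% acetonitrile gradient: [a] pH 2.3, 0.1% phosphoric acid; [b] LC-MS, pH 2.7, 0.1% formic acid; [c] LC-MS, pH 7.8, 0.001 molar ammonium hydrogen carbonate. Calibrated with C3-C16 alkan-2-ones by retention-time interpolation.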

The structures appear in SMILES notation.

With `CC(C)Oc1ccc([C@H]2CCC[C@H]2NC(=O)c2cccnc2Cl)cc1` (relative stereo) [Example 326], the logP runs as follows: (method [b] (pH 2.7)) 3.06^[b]; (method [c] pH 7.8) 2.99^[c];. In the same order, the values of `CC(C)Oc1ccc([C@H]2CCC[C@H]2NC(=O)c2ccccc2Br)cc1` (relative stereo) [Example 327] are 3.81^[b] and 3.74^[c];. Take `O=C(N[C@@H]1CCC[C@@H]1c1ccccc1F)c1c(F)cccc1F` (relative stereo) [Example 328]: the logP by setting is: (method [b] (pH 2.7)) 2.95^[b]; (method [c] pH 7.8) 2.90^[c];. In the same order, the values of `CC(C)Oc1ccc([C@H]2CCC[C@H]2NC(=O)c2c(F)cccc2F)cc1` (relative stereo) [Example 329] are 3.55^[b] and 3.49^[c];.

In the case of `O=C(N[C@@H]1CCC[C@@H]1c1ccc(C(F)(F)F)cc1)c1nccnc1C(F)(F)F` (relative stereo) [Example 330], the logP is 3.55^[b] (method [b] (pH 2.7)) and 3.45^[c]; (method [c] pH 7.8). For `O=C(N[C@@H]1CCC[C@@H]1c1ccc(C(F)(F)F)cc1)c1ncccc1C(F)(F)F` (relative stereo) [Example 331], in that order: 3.36^[b] and 3.28^[c];. In the same order, the values of `O=C(N[C@@H]1CCC[C@@H]1c1ccccc1F)c1ccccc1I` (relative stereo) [Example 332] are 3.30^[b] and 3.28^[c];. For `CC(C)Oc1ccc([C@H]2CCC[C@H]2NC(=O)c2ccccc2I)cc1` (relative stereo) [Example 333], in that order: 3.92^[b] and 3.89^[c];. Consider `CC(C)Oc1ccc([C@H]2CCC[C@H]2NC(=O)c2ccccn2)cc1` (relative stereo) [Example 334], for which the logP by setting is: (method [b] (pH 2.7)) 2.41^[b]; (method [c] pH 7.8) 2.46^[c];.

Turning to `CC(C)Oc1ccc([C@H]2CCC[C@H]2NC(=O)c2nccnc2Cl)cc1` (relative stereo) [Example 335], the logP is 3.23^[b] (method [b] (pH 2.7)) and 3.21^[c]; (method [c] pH 7.8). For `O=C(N[C@@H]1CCC[C@@H]1c1ccccc1F)c1nccnc1Cl` (relative stereo) [Example 336], the logP is 2.61^[b] (method [b] (pH 2.7)) and 2.55^[c]; (method [c] pH 7.8). For `CC(C)Oc1ccc([C@H]2CCC[C@H]2NC(=O)c2ccc(I)s2)cc1` (relative stereo) [Example 338], in that order: 4.43^[b] and 4.27^[c];.

As to `O=C(N[C@@H]1CCC[C@@H]1c1ccccc1F)c1ccccn1` (relative stereo) [Example 339], the logP runs as follows: (method [b] (pH 2.7)) 1.86^[b]; (method [c] pH 7.8) 1.95^[c];. For `CC(C)Oc1ccc([C@H]2CCC[C@H]2NC(=O)c2nccnc2C(F)(F)F)cc1` (relative stereo) [Example 340], in that order: 3.62^[b] and 3.55^[c];. For `O=C(N[C@@H]1CCC[C@@H]1c1ccccc1F)c1nccnc1C(F)(F)F` (relative stereo) [Example 341], in that order: 3.00^[b] and 2.94^[c];. In the same order, the values of `Cc1nc(C(F)(F)F)c(C(=O)N[C@@H]2CCC[C@@H]2c2ccc(OC(C)C)cc2)s1` (relative stereo) [Example 342] are 3.80^[b] and 3.71^[c];. As to `Cc1nc(C(F)(F)F)c(C(=O)N[C@@H]2CCC[C@@H]2c2ccccc2F)s1` (relative stereo) [Example 343], the logP by setting is: (method [b] (pH 2.7)) 3.18^[b]; (method [c] pH 7.8) 3.07^[c];. For `O=C(N[C@@H]1CCC[C@@H]1c1ccc(C(F)(F)F)cc1)c1sccc1I` (relative stereo) [Example 360], in that order: 4.21^[b] and 4.16^[c];.

In the case of `O=C(N[C@@H]1CC[C@H]1c1ccc(F)cc1C(F)(F)F)c1c(F)cccc1F` (relative stereo) [Example 492], the logP (method [b] (pH 2.7)) was 3.38^[b]. As for `O=C(N[C@@H]1CC[C@H]1c1ccc(F)cc1C(F)(F)F)c1ccccc1` (relative stereo) [Example 504], the logP (method [b] (pH 2.7)) was 3.42^[b].
